The source made the active and inactive calls. No cut-off for these calls is given here.
molecular target: not listed separately; assay: Binding affinity to 2GGG sequence of human telomeric DNA assessed as intramolecular folding leading to G-quadruplex formation at 25 degC after 30 mins by electrophoretic mobility shift assay

Structure (SMILES)	EC50 [µM]
CN(C)CCN1C(=O)c2ccc3c4ccc5c6c(ccc(c7ccc(c2c37)C1=O)c64)C(=O)N(CCN(C)C)C5=O	4
O=C1c2ccc3c4ccc5c6c(ccc(c7ccc(c2c37)C(=O)N1CCNCCO)c64)C(=O)N(CCNCCO)C5=O	3.8

molecular target: not listed separately; assay: Binding affinity to 1GGG sequence of human telomeric DNA assessed as intramolecular folding leading to G-quadruplex formation at 25 degC after 30 mins by electrophoretic mobility shift assay

Structure (SMILES)	EC50 [µM]
CN(C)CCN1C(=O)c2ccc3c4ccc5c6c(ccc(c7ccc(c2c37)C1=O)c64)C(=O)N(CCN(C)C)C5=O	8.7
O=C1c2ccc3c4ccc5c6c(ccc(c7ccc(c2c37)C(=O)N1CCNCCO)c64)C(=O)N(CCNCCO)C5=O	11

species: Homo sapiens; assay: Binding affinity to 2GGG sequence of human telomeric DNA assessed as G-quadruplex stabilization at 25 degC after 30 mins by electrophoretic mobility shift assay in presence of Li+ ions

Structure (SMILES)	Activity
CN(C)CCN1C(=O)c2ccc3c4ccc5c6c(ccc(c7ccc(c2c37)C1=O)c64)C(=O)N(CCN(C)C)C5=O	Active
O=C1c2ccc3c4ccc5c6c(ccc(c7ccc(c2c37)C(=O)N1CCNCCO)c64)C(=O)N(CCNCCO)C5=O	Active

species: Homo sapiens; assay: Binding affinity to 1GGG sequence of human telomeric DNA assessed as G-quadruplex stabilization at 25 degC after 30 mins by electrophoretic mobility shift assay in presence of Li+ ions

Structure (SMILES)	Activity
CN(C)CCN1C(=O)c2ccc3c4ccc5c6c(ccc(c7ccc(c2c37)C1=O)c64)C(=O)N(CCN(C)C)C5=O	Active
O=C1c2ccc3c4ccc5c6c(ccc(c7ccc(c2c37)C(=O)N1CCNCCO)c64)C(=O)N(CCNCCO)C5=O	Active

species: Homo sapiens; assay: Binding affinity to 4GGG sequence of human telomeric DNA assessed as G-quadruplex stabilization at 25 degC after 30 mins by electrophoretic mobility shift assay in presence of Li+ ions

Structure (SMILES)	Activity
CN(C)CCN1C(=O)c2ccc3c4ccc5c6c(ccc(c7ccc(c2c37)C1=O)c64)C(=O)N(CCN(C)C)C5=O	Active
O=C1c2ccc3c4ccc5c6c(ccc(c7ccc(c2c37)C(=O)N1CCNCCO)c64)C(=O)N(CCNCCO)C5=O	Active

system: not listed separately; assay: Binding affinity to pu27 sequence of c-myc DNA assessed as G-quadruplex stabilization at 25 degC after 30 mins at 25 degC by electrophoretic mobility shift assay in presence of Li+ ions

Structure (SMILES)	Activity
CN(C)CCN1C(=O)c2ccc3c4ccc5c6c(ccc(c7ccc(c2c37)C1=O)c64)C(=O)N(CCN(C)C)C5=O	Active
O=C1c2ccc3c4ccc5c6c(ccc(c7ccc(c2c37)C(=O)N1CCNCCO)c64)C(=O)N(CCNCCO)C5=O	Active

species: Homo sapiens; assay: Binding affinity to 2GGG sequence of human telomeric DNA assessed as stabilization of dimeric form of G-quadruplex DNA at 95 degC for 5 mins by electrophoretic mobility shift assay

Structure (SMILES)	Activity
CN(C)CCN1C(=O)c2ccc3c4ccc5c6c(ccc(c7ccc(c2c37)C1=O)c64)C(=O)N(CCN(C)C)C5=O	Active

species: Homo sapiens; assay: Binding affinity to 2GGG sequence of human telomeric DNA assessed as G-quadruplex formation at 25 degC upto 15 uM after 24 hr by electrophoretic mobility shift assay

Structure (SMILES)	Activity
CN(C)CCN1C(=O)c2ccc3c4ccc5c6c(ccc(c7ccc(c2c37)C1=O)c64)C(=O)N(CCN(C)C)C5=O	Active

species: Homo sapiens; assay: Binding affinity to 2GGG sequence of human telomeric DNA assessed as G-quadruplex formation at 25 degC upto 15 uM after 30 mins by electrophoretic mobility shift assay

Structure (SMILES)	Activity
CN(C)CCN1C(=O)c2ccc3c4ccc5c6c(ccc(c7ccc(c2c37)C1=O)c64)C(=O)N(CCN(C)C)C5=O	Active

species: Homo sapiens; assay: Binding affinity to 2GGG sequence of human telomeric DNA assessed as G-quadruplex formation at 90 degC upto 15 uM after 10 mins by electrophoretic mobility shift assay

Structure (SMILES)	Activity
CN(C)CCN1C(=O)c2ccc3c4ccc5c6c(ccc(c7ccc(c2c37)C1=O)c64)C(=O)N(CCN(C)C)C5=O	Active

system: not listed separately; assay: Binding affinity to double stranded pu27 sequence of c-myc DNA assessed as intramolecular folding leading to G-quadruplex formation at 0.1 to 10 uM at 37 degC after 24 hrs by electrophoretic mobility shift assay

Structure (SMILES)	Activity
CN(C)CCN1C(=O)c2ccc3c4ccc5c6c(ccc(c7ccc(c2c37)C1=O)c64)C(=O)N(CCN(C)C)C5=O	inactive

system: not listed separately; assay: Binding affinity to double stranded pu27 sequence of c-myc DNA assessed as intramolecular folding leading to G-quadruplex formation at 0.1 to 10 uM at 95 degC after 24 hrs by electrophoretic mobility shift assay

Structure (SMILES)	Activity
CN(C)CCN1C(=O)c2ccc3c4ccc5c6c(ccc(c7ccc(c2c37)C1=O)c64)C(=O)N(CCN(C)C)C5=O	inactive

species: Homo sapiens; assay: Binding affinity to double stranded 4GGG sequence of human telomeric DNA assessed as G-quadruplex formation at 0.1 to 10 uM at 37 degC after 24 hrs by electrophoretic mobility shift assay

Structure (SMILES)	Activity
CN(C)CCN1C(=O)c2ccc3c4ccc5c6c(ccc(c7ccc(c2c37)C1=O)c64)C(=O)N(CCN(C)C)C5=O	inactive
O=C1c2ccc3c4ccc5c6c(ccc(c7ccc(c2c37)C(=O)N1CCNCCO)c64)C(=O)N(CCNCCO)C5=O	inactive

species: Homo sapiens; assay: Binding affinity to 4GGGtail sequence of human telomeric DNA assessed as G-quadruplex formation at 0.1 to 10 uM at 37 degC after 24 hrs by electrophoretic mobility shift assay

Structure (SMILES)	Activity
CN(C)CCN1C(=O)c2ccc3c4ccc5c6c(ccc(c7ccc(c2c37)C1=O)c64)C(=O)N(CCN(C)C)C5=O	inactive

species: Homo sapiens; assay: Binding affinity to 4GGG sequence of human telomeric DNA assessed as G-quadruplex formation at 14 uM at 25 degC after 30 mins by circular dichroism spectroscopy in presence of K+ ions

Structure (SMILES)	Activity
CN(C)CCN1C(=O)c2ccc3c4ccc5c6c(ccc(c7ccc(c2c37)C1=O)c64)C(=O)N(CCN(C)C)C5=O	Active
O=C1c2ccc3c4ccc5c6c(ccc(c7ccc(c2c37)C(=O)N1CCNCCO)c64)C(=O)N(CCNCCO)C5=O	Active

species: Homo sapiens; assay: Binding affinity to 4GGG sequence of human telomeric DNA assessed as G-quadruplex formation at 14 uM at 25 degC after 30 mins during thermal cycling by circular dichroism spectroscopy

Structure (SMILES)	Activity
CN(C)CCN1C(=O)c2ccc3c4ccc5c6c(ccc(c7ccc(c2c37)C1=O)c64)C(=O)N(CCN(C)C)C5=O	inactive
O=C1c2ccc3c4ccc5c6c(ccc(c7ccc(c2c37)C(=O)N1CCNCCO)c64)C(=O)N(CCNCCO)C5=O	inactive

system: not listed separately; assay: Binding affinity to double stranded pu27 sequence of c-myc DNA assessed as G-quadruplex formation at 14 uM at 25 degC after 30 mins during thermal cycling by circular dichroism spectroscopy

Structure (SMILES)	Activity
CN(C)CCN1C(=O)c2ccc3c4ccc5c6c(ccc(c7ccc(c2c37)C1=O)c64)C(=O)N(CCN(C)C)C5=O	Active

system: Nucleic Acid; assay: Binding affinity to negatively supercoiled Escherichia coli pBR322 DNA assessed as DNA intercalation at 10 to 20 uM at pH 8 after 30 mins by DNA unwinding assay; assay type: nucleic-acid assay

Structure (SMILES)	Activity
CN(C)CCN1C(=O)c2ccc3c4ccc5c6c(ccc(c7ccc(c2c37)C1=O)c64)C(=O)N(CCN(C)C)C5=O	Active
O=C1c2ccc3c4ccc5c6c(ccc(c7ccc(c2c37)C(=O)N1CCNCCO)c64)C(=O)N(CCNCCO)C5=O	Active

species: Homo sapiens; assay: Binding affinity to 42GGG sequence of human telomeric DNA assessed as G-quadruplex formation at 25 degC upto 20 uM after 30 mins by electrophoretic mobility shift assay

Structure (SMILES)	Activity
CN(C)CCN1C(=O)c2ccc3c4ccc5c6c(ccc(c7ccc(c2c37)C1=O)c64)C(=O)N(CCN(C)C)C5=O	Active
O=C1c2ccc3c4ccc5c6c(ccc(c7ccc(c2c37)C(=O)N1CCNCCO)c64)C(=O)N(CCNCCO)C5=O	Active

system: Nucleic Acid; assay: Binding affinity to negatively supercoiled Escherichia coli pBR322 DNA assessed as DNA intercalation at 20 to 50 uM at pH 6 after 30 mins by DNA unwinding assay; assay type: nucleic-acid assay

Structure (SMILES)	Activity
CN(C)CCN1C(=O)c2ccc3c4ccc5c6c(ccc(c7ccc(c2c37)C1=O)c64)C(=O)N(CCN(C)C)C5=O	Active
O=C1c2ccc3c4ccc5c6c(ccc(c7ccc(c2c37)C(=O)N1CCNCCO)c64)C(=O)N(CCNCCO)C5=O	Active

species: Homo sapiens; assay: Binding affinity to 42GGG sequence of human telomeric DNA assessed as G-quadruplex formation at 90 degC after 10 mins by electrophoretic mobility shift assay

Structure (SMILES)	Activity
CN(C)CCN1C(=O)c2ccc3c4ccc5c6c(ccc(c7ccc(c2c37)C1=O)c64)C(=O)N(CCN(C)C)C5=O	Active
O=C1c2ccc3c4ccc5c6c(ccc(c7ccc(c2c37)C(=O)N1CCNCCO)c64)C(=O)N(CCNCCO)C5=O	Active

system: not listed separately; assay: Binding affinity to pu27 sequence of c-myc DNA assessed as G-quadruplex formation at 90 degC […] after 10 mins by electrophoretic mobility shift assay

Structure (SMILES)	Activity
CN(C)CCN1C(=O)c2ccc3c4ccc5c6c(ccc(c7ccc(c2c37)C1=O)c64)C(=O)N(CCN(C)C)C5=O	inactive
O=C1c2ccc3c4ccc5c6c(ccc(c7ccc(c2c37)C(=O)N1CCNCCO)c64)C(=O)N(CCNCCO)C5=O	inactive
